Reference: BindingDB's records for doi:10.1021/jm970569j (Seoul National University, 1998)

Molecular target: Platelet-activating factor receptor (Oryctolagus cuniculus)
Test: In vitro inhibitory activity against PAF receptor using [3H]PAF as radioligand in rabbit platelets

Row | Compound | IC50 [µM]
1 | C=C1CCC2[C@](C)(CCC[C@]2(C)C(=O)OC)[C@H]1CCC1=CC(=O)OC1 (stereo partly drawn) [(1S,4aR,5S)-1,4a-Dimethyl-6-methylene-5-[2-(5-oxo-2,5-dihydro-furan-3-yl)-ethyl]-decahydro-naphthalene-1-carboxylic acid methyl ester] | 6
2 | COC(=O)[C@@]1(C)CCC[C@@]2(C)C1CCC(C)[C@@H]2CCC1CCOC1=O (stereo partly drawn) [(1S,4aR,5S)-1,4a,6-Trimethyl-5-[2-(2-oxo-tetrahydro-furan-3-yl)-ethyl]-decahydro-naphthalene-1-carboxylic acid methyl ester] | 4.8
3 | C=C1CCC2[C@](C)(CCC[C@]2(C)C(=O)OC)[C@H]1CCC1CCOC1=O (stereo partly drawn) [(1S,4aR,5S)-1,4a-Dimethyl-6-methylene-5-[2-(2-oxo-tetrahydro-furan-3-yl)-ethyl]-decahydro-naphthalene-1-carboxylic acid methyl ester] | 2
4 | COC(=O)[C@@]1(C)CCC[C@@]2(C)C1CC[C@H](O)[C@@H]2CCC1=CCOC1=O (stereo partly drawn) [(1S,4aS,5R,6S)-6-Hydroxy-1,4a-dimethyl-5-[2-(2-oxo-2,5-dihydro-furan-3-yl)-ethyl]-decahydro-naphthalene-1-carboxylic acid methyl ester] | 2
5 | COC(=O)[C@@]1(C)CCC[C@@]2(C)C1CC[C@](O)(CO)[C@@H]2CCC1=CCOC1=O (stereo partly drawn) [(1S,4aS,5R,6R)-6-Hydroxy-6-hydroxymethyl-1,4a-dimethyl-5-[2-(2-oxo-2,5-dihydro-furan-3-yl)-ethyl]-decahydro-naphthalene-1-carboxylic acid methyl ester] | > 1000
6 | COC(=O)[C@@]1(C)CCC[C@@]2(C)C1CC[C@]1(CO1)[C@@H]2CCC1=CCOC1=O (stereo partly specified) [methyl 5,8a-dimethyl-1-[2-(2-oxo-2,5-dihydro-3-furanyl)ethyl]spiro[perhydronaphthalene-2,2'-(dihydrooxirane)]-5-carboxylate] | 1
7 | C=C1CCC2[C@@](C)(CO)CCC[C@]2(C)[C@H]1CCC1=CCOC1=O (stereo partly drawn) [3-[2-((1S,5S,8aR)-5-Hydroxymethyl-5,8a-dimethyl-2-methylene-decahydro-naphthalen-1-yl)-ethyl]-5H-furan-2-one] | 30
8 | C=C1CCC2[C@@](C)(COC)CCC[C@]2(C)[C@H]1CCC1=CCOC1=O (stereo partly drawn) [3-[2-((1S,5S,8aR)-5-Methoxymethyl-5,8a-dimethyl-2-methylene-decahydro-naphthalen-1-yl)-ethyl]-5H-furan-2-one] | 1.7
9 | C=C1CCC2[C@](C)(CCC[C@]2(C)C(=O)OC)[C@H]1CCc1ccoc1 (stereo partly drawn) [(1S,4aR,5S)-5-(2-Furan-3-yl-ethyl)-1,4a-dimethyl-6-methylene-decahydro-naphthalene-1-carboxylic acid methyl ester] | > 1000
10 | COC(=O)[C@@]1(C)CCC[C@@]2(C)C1CCC(=O)[C@@H]2CCC1=CCOC1=O (stereo partly drawn) [(1S,4aS,5R)-1,4a-Dimethyl-6-oxo-5-[2-(2-oxo-2,5-dihydro-furan-3-yl)-ethyl]-decahydro-naphthalene-1-carboxylic acid methyl ester] | 0.26
11 | C=C1CCC2[C@](C)(CCC[C@]2(C)C(=O)OC)[C@H]1CCC1=CCOC1=O (stereo partly drawn) [(1S,4aR,5S)-1,4a-Dimethyl-6-methylene-5-[2-(2-oxo-2,5-dihydro-furan-3-yl)-ethyl]-decahydro-naphthalene-1-carboxylic acid methyl ester] | 0.25
12 | COC(=O)[C@@]1(C)CCC[C@@]2(C)C1CCC(=O)[C@@H]2CCC1CCOC1=O (stereo partly drawn) [(1S,4aS,5R)-1,4a-Dimethyl-6-oxo-5-[2-(2-oxo-tetrahydro-furan-3-yl)-ethyl]-decahydro-naphthalene-1-carboxylic acid methyl ester] | 2.6
13 | C=C1CCC2[C@@](C)(CO)CCC[C@]2(C)[C@H]1CCC1=CC(=O)OC1 (stereo partly drawn) [4-[2-((1S,5S,8aR)-5-Hydroxymethyl-5,8a-dimethyl-2-methylene-decahydro-naphthalen-1-yl)-ethyl]-5H-furan-2-one] | 110
14 | COC(=O)[C@@]1(C)CCC[C@@]2(C)C1CC[C@H](CO)[C@@H]2CCC1=CCOC1=O (stereo partly drawn) [(1S,4aR,5S,6S)-6-Hydroxymethyl-1,4a-dimethyl-5-[2-(2-oxo-2,5-dihydro-furan-3-yl)-ethyl]-decahydro-naphthalene-1-carboxylic acid methyl ester] | 1.6
15 | C=C1CCC2[C@](C)(CCC[C@]2(C)C(=O)OC)[C@H]1CC/C(=C/CO)CO (stereo partly drawn) [(1S,4aR,5S)-5-((Z)-5-Hydroxy-3-hydroxymethyl-pent-3-enyl)-1,4a-dimethyl-6-methylene-decahydro-naphthalene-1-carboxylic acid methyl ester] | 12
16 | C=C1CCC2[C@@](C)(CO)CCC[C@]2(C)[C@H]1CC/C(=C/CO)CO (stereo partly drawn) [(Z)-2-[2-((1S,5S,8aR)-5-Hydroxymethyl-5,8a-dimethyl-2-methylene-decahydro-naphthalen-1-yl)-ethyl]-but-2-ene-1,4-diol] | 21
